In data set [1] the test system is P. falciparum CQ-sensitive strain 3D7. The data set is described as follows: In vitro antiplasmodial activity, SYBR Green I fluorescence-based method, strain 3D7. In kind it is cell-based. The note with it: for IC50: Plasmodium falciparum, chloroquine-sensitive strain 3D7, 48 h incubation, read-out: P. falciparum strains IC50 values, 3D7; for Selectivity index HepG2/3D7: SI = CC50 HepG2 / IC50 P. falciparum 3D7. The procedure: (§1) The in vitro antiplasmodial activities were tested over concentrations ranging from […] against culture-adapted P. falciparum reference strains 3D7 and W2. […] The parasites were cultivated in RPMI medium (Sigma-Aldrich, Lyon, France) supplemented with 0.5% Albumax I (Life Technologies Corporation, Paisley, UK), hypoxanthine (Sigma-Aldrich), and gentamicin (Sigma-Aldrich) with human erythrocytes and were incubated at 37 °C in a candle jar, as described previously[43] .The P. falciparum drug susceptibility test was carried out in 96-well flat-bottom sterile plates in a final volume of 250 µl. After 48 h incubation period with the drugs, quantities of DNA in treated and control cultures of parasites in human erythrocytes were quantified using the SYBR Green I (Sigma-Aldrich) fluorescence-based method[44]^,[45]. Briefly, after incubation, plates were frozen at −20 °C until use. Plates were then thawed for 2 h at room temperature, and 100 µl of each homogenised culture was transferred to a well of a 96-well flat-bottom sterile black plate (Nunc, Inc., Rochester, NY) that contained 100 µl of the SYBR Green I lysis buffer (2xSYBR Green, 20 mM Tris base pH 7.5, 5 mM EDTA, 0.008% w/v saponin, 0.08% w/v Triton X-100). […] Plates were incubated for 1 h at room temperature and then read on a fluorescence plate reader (Tecan, Grödig, Austria) using excitation and emission wavelengths of 485 and 535 nm, respectively. IC50 values were calculated by non-linear regression analysis of data from dose-response curves, using TableCurve 2D version 5.0 software (Systat Software, San Jose, CA). IC50 values are reported as means calculated from three independent experiments.

Data set [2] is described as follows: Cytotoxicity evaluation, MTT. Type of data set: cell-based, human. The settings on record: human. The procedure:
These cells are a commonly used human hepatocarcinoma-derived cell line that has characteristics similar to those of primary hepatocytes. These cells express many hepatocyte-specific metabolic enzymes, thus enabling the cytotoxicity of tested product metabolites to be evaluated. […] Duplicate assays were performed for each sample. Each well was microscopically examined for precipitate formation before the medium was aspirated from the wells. After aspiration, 100 µl of MTT solution (0.5 mg/ml in medium without FCS) were then added to each well. […] The MTT solution was removed, and DMSO (100 µl) was added to dissolve the resulting blue formazan crystals. Plates were shaken vigorously (300 rpm) for 5 min. The absorbance was measured at 570 nm with 630 nm as reference wavelength in a BIO-TEK ELx808 Absorbance Microplate Reader. DMSO was used as blank and doxorubicin (Sigma Aldrich) as positive control. Cell viability was calculated as percentage of control (cells incubated without compound). The CC50 was determined from the dose-response curve using the TableCurve 2D version 5.0 software (Systat Software, San Jose, CA)

In data set [3] the test system is P. falciparum CQ-resistant strain W2. The data set is described as follows: In vitro antiplasmodial activity, SYBR Green I fluorescence-based method, strain W2. In kind it is cell-based. The settings on record: for IC50: Plasmodium falciparum, chloroquine-resistant strain W2, 48 h incubation, read-out: P. falciparum strains IC50 values, W2; for Selectivity index HepG2/W2: SI = CC50 HepG2 / IC50 P. falciparum W2. The procedure: as §1

The test system of data set [4] is L. donovani (MHOM/IN/00/DEVI) promastigotes. Description: In vitro antileishmanial activity, MTT assay on promastigotes. The note with it: Leishmania donovani, 72 h incubation, ≥10 = no activity noted at the highest concentration tested. In kind it is cell-based. As to the method:
L. donovani (MHOM/IN/00/DEVI) used in this study was provided by the CNR Leishmania (Montpellier, France). The effects of the tested compounds on the growth of L. donovani (MHOM/IN/00/DEVI) promastigotes were assessed by MTT assay. Briefly, promastigotes in log-phase in Schneider’s medium supplemented with 20% foetal calf serum (FCS), 2 mM L-glutamine and antibiotics (100 U/ml penicillin and 100 µg/ml streptomycin), were incubated at an average density of 10^6 parasites/ml in sterile 96-well plates with various concentrations of compounds dissolved in DMSO (final concentration less than 0.5% v/v), in duplicate. Appropriate controls treated with DMSO and amphotericin B (reference drug purchased from Sigma-Aldrich) were added to each set of experiments. After 72 h incubation period at 27 °C, parasite metabolic activity was determined. Each well was microscopically examined for precipitate formation. To each well was added 20 µl of 5 mg/ml MTT [3–(4,5-dimethylthiazol-2-yl)-2,5-diphenyltetrazolium bromide)] solution followed by 4 h incubation time. The enzyme reaction was stopped by addition of 100 µl of 50% isopropanol/10% sodium dodecyl sulfate. Plates were vigorously shaken (300 rpm) for 10 min, and the absorbance was measured at 570 nm in a BIO-TEK ELx808 Absorbance Microplate Reader. […] IC50 of the parasite’s growth (half maximal inhibitory concentration or IC50 values) were then calculated from the obtained experimental results using a previously described regression programme.
A general note: Tetrazolium assays rely on reduction of a dye to a coloured formazan, in cell work by metabolically active cells.

Data set [5] has as its system T. brucei brucei AnTat 1.9. The data set is described as follows: In vitro antitrypanosomal activity, Alamar Blue assay. The settings on record: for Selectivity index HepG2/Tryp.: SI = CC50 HepG2 / IC50 Trypanosoma brucei brucei; for IC50: Trypanosoma brucei, slender bloodstream trypomastigotes, AnTat 1.9 strain, read-out: Trypanosoma brucei brucei IC50 values, Trypanos Antat 1.9. In kind it is cell-based. As to the method:
The effects of the tested compounds on the growth of T. brucei brucei were assessed using an Alamar Blue® assay described by Räz et al.[49] T. brucei brucei AnTat 1.9 (IMTA, Antwerpen, Belgium) was cultured in MEM with Earle’s salts, supplemented according to the protocol of Baltz et al.[50] with the following modifications: 0.5 mM mercaptoethanol (Sigma Aldrich), 1.5 mM L-cysteine (Sigma Aldrich), 0.05 mM bathocuproine sulphate (Sigma Aldrich), and 20% heat-inactivated horse serum (Gibco, France) at 37 °C and 5% CO2. Samples were incubated at an average density of 2000 parasites/well in sterile 96-wells plates (Fisher, France) with various concentrations of compounds dissolved in 0.9% NaCl. All doses were tested in duplicate. Appropriate controls treated with solvents 0.9% NaCl or DMSO or with suramin, pentamidine, eflornithine, and fexinidazole (reference drugs purchased from Sigma Aldrich and Fluorochem, UK) were added to each set of experiments. After 69 h incubation period at 37 °C, 10 µl of the viability marker Alamar Blue (Fisher) was added to each well, and the plates were incubated for 5 h. The plates were read in a PerkinElmer ENSPIRE (Germany) microplate reader using an excitation wavelength of 530 nm and an emission wavelength of 590 nm. […] IC50 values were calculated using a nonlinear regression analysis of dose-response curves performed using GraphPad Prism software (La Jolla, CA). IC50 values were calculated from three independent experiments.
For orientation: Resazurin is reduced to fluorescent resorufin, in cell work by metabolically active cells.

Structures are written as SMILES. Some results are limits rather than exact numbers.

As a reminder, the IC50 is the midpoint of a concentration-inhibition curve. Broadly, the CC50 is the concentration at which the toxic effect on the cells reaches its halfway point. Low readings indicate greater toxicity to the cells, high ones lower toxicity to the cells.

In the case of `CN1CCN(CCCCNCc2ccc(-c3cc4ccccc4c(-c4ccc(CNCCCCN5CCN(C)CC5)cc4)n3)cc2)CC1` [Compound 2c, 1,3-Bis{4-[(4–(4-methylpiperazin-1-yl)butyl)aminomethyl]phenyl}isoquinoline], in data set [1], the IC50 came to 1.96 ± 0.58 µM and the “Selectivity index HepG2/3D7” value stood at 2.54. The CC50 at 72 h in data set [2] is 4.98 ± 0.5 µM. In data set [3], the IC50 is 4.42 ± 0.56 µM and the “Selectivity index HepG2/W2” value came out at 1.13. The compound also gave an IC50 in data set [4] not below 10 µM. In data set [5], the “Selectivity index HepG2/Tryp.” value is on record as 4.53 and the half-maximal inhibitory concentration (IC50) was 1.1 ± 0.318 µM.

As for `COc1ccc2nc(-c3ccc(CNCCN4CCN(C)CC4)cc3)nc(-c3ccc(CNCCN4CCN(C)CC4)cc3)c2c1` [Compound 3l, 6-Methoxy-2,4-bis{4-[(2–(4-methylpiperazin-1-yl)ethyl)aminomethyl]phenyl}quinazoline], in data set [1], the IC50 came to 1.81 ± 0.25 µM and the “Selectivity index HepG2/3D7” value is 3.61. This compound displayed a CC50 at 72 h in data set [2] of 6.53 ± 0.6 µM. In data set [3], the IC50 was determined as 1.34 ± 0.29 µM and the “Selectivity index HepG2/W2” value was found to be 4.87. In data set [4], the IC50 was not below 10 µM. Further, in data set [5], the “Selectivity index HepG2/Tryp.” value was 11.06 and the IC50 came out at 0.59 ± 0.057 µM.

`COc1ccc2cc(-c3ccc(CNCCCN4CCN(C)CC4)cc3)nc(-c3ccc(CNCCCN4CCN(C)CC4)cc3)c2c1` [Compound 2h, 7-Methoxy-1,3-bis{4-[(3–(4-methylpiperazin-1-yl)propyl)aminomethyl]phenyl}isoquinoline]: the IC50 in data set [1] was 1.81 ± 0.19 µM; in data set [3], 1.28 ± 0.34 µM; in data set [4], not below 10 µM; in data set [5], 0.81 ± 0.255 µM. In data set [1], the “Selectivity index HepG2/3D7” value was 3.97. In addition, in data set [2], the CC50 at 72 h turned out to be 7.18 ± 0.6 µM. Further, the “Selectivity index HepG2/W2” value in data set [3] was 5.61. Besides, the “Selectivity index HepG2/Tryp.” value in data set [5] is listed as 8.86.

On to `CN(C)CCCCNCc1ccc(-c2cc3ccccc3c(-c3ccc(CNCCCCN(C)C)cc3)n2)cc1` [Compound 2a, 1,3-Bis{4-[(4-dimethylaminobutyl)aminomethyl]phenyl}isoquinoline], for which, in data set [1], the IC50 turned out to be 1.74 ± 0.36 µM and the “Selectivity index HepG2/3D7” value is 4.78. The compound further had a CC50 at 72 h in data set [2] of 8.31 ± 1 µM. Further, in data set [3], the IC50 amounted to 6.23 ± 0.8 µM and the “Selectivity index HepG2/W2” value came to 1.33. This compound also returned an IC50 in data set [4] not below 10 µM. Further, in data set [5], the “Selectivity index HepG2/Tryp.” value is listed as 12.98 and the IC50 was 0.64 ± 0.163 µM.

Regarding `COc1ccc2c(-c3ccc(CNCCCN4CCN(C)CC4)cc3)cc(-c3ccc(CNCCCN4CCN(C)CC4)cc3)nc2c1` [Compound 1p, 7-Methoxy-2,4-bis{4-[(3–(4-methylpiperazin-1-yl)propyl)aminomethyl]phenyl}quinoline], in data set [1], the IC50 was 4.34 ± 0.5 µM and the “Selectivity index HepG2/3D7” value came out at 1.48. In addition, half-maximal cytotoxicity in data set [2] (CC50 at 72 h) was put at 6.44 ± 0.6 µM. For the same compound, in data set [3], the IC50 was found to be 2.73 ± 0.76 µM and the “Selectivity index HepG2/W2” value came to 2.36. Further, the IC50 in data set [4] was not below 10 µM. Further, in data set [5], the “Selectivity index HepG2/Tryp.” value is on record as 6.37 and the IC50 was 1.01 ± 0.135 µM.

Regarding `COc1ccc2nc(-c3ccc(CNCCCCN(C)C)cc3)cc(-c3ccc(CNCCCCN(C)C)cc3)c2c1` [Compound 1i, 6-Methoxy-2,4-bis{4-[(4-dimethylaminobutyl)aminomethyl]phenyl}quinoline], in data set [1], the IC50 turned out to be 3.09 ± 0.38 µM and the “Selectivity index HepG2/3D7” value is on record as 1.16. The compound further displayed a CC50 at 72 h in data set [2] of 3.58 ± 0.3 µM. Besides, in data set [3], the IC50 amounted to 7.92 ± 0.64 µM and the “Selectivity index HepG2/W2” value was determined as 0.45. The compound also had a concentration for half-maximal inhibition (IC50) in data set [4] not below 10 µM. Also, in data set [5], the “Selectivity index HepG2/Tryp.” value amounted to 5.34 and the IC50 was found to be 0.67 ± 0.091 µM.

As to `COc1ccc2c(-c3ccc(CNCCN4CCN(C)CC4)cc3)nc(-c3ccc(CNCCN4CCN(C)CC4)cc3)nc2c1` [Compound 3r, 7-Methoxy-2,4-bis{4-[(2–(4-methylpiperazin-1-yl)ethyl)aminomethyl]phenyl}quinazoline], in data set [1], the IC50 amounted to 4.34 ± 0.33 µM and the “Selectivity index HepG2/3D7” value was determined as 0.90. Also, the CC50 at 72 h in data set [2] is 3.9 ± 0.9 µM. In addition, in data set [3], the IC50 was 4.75 ± 0.31 µM and the “Selectivity index HepG2/W2” value was determined as 0.82. The compound also had an IC50 in data set [4] not below 10 µM. Besides, in data set [5], the “Selectivity index HepG2/Tryp.” value turned out to be 3.64 and the half-maximal inhibitory concentration (IC50) came out at 1.07 ± 0.164 µM.

As for `COc1ccc2c(-c3ccc(CNCCCCN(C)C)cc3)cc(-c3ccc(CNCCCCN(C)C)cc3)nc2c1` [Compound 1m, 7-Methoxy-2,4-bis{4-[(4-dimethylaminobutyl)aminomethyl]phenyl}quinoline], the IC50 in data set [1] is 8.98 ± 0.36 µM; in data set [3], more than 40 µM; in data set [4] it was not below 10 µM; in data set [5], 1.08 ± 0.068 µM. Moreover, in data set [1], the “Selectivity index HepG2/3D7” value is 0.60. Half-maximal cytotoxicity in data set [2] (CC50 at 72 h) was put at 5.4 ± 0.3 µM. The “Selectivity index HepG2/Tryp.” value in data set [5] worked out at 5.00.

`COc1ccc2c(-c3ccc(CNCCCN(C)C)cc3)cc(-c3ccc(CNCCCN(C)C)cc3)nc2c1` [Compound 1n, 7-Methoxy-2,4-bis{4-[(3-dimethylaminopropyl)aminomethyl]phenyl}quinoline]: the IC50 in data set [1] is 3.18 ± 0.36 µM; in data set [3], 1.69 ± 0.24 µM; in data set [4], not below 10 µM; in data set [5], 1.2 ± 0.296 µM. Besides, the “Selectivity index HepG2/3D7” value in data set [1] is 0.15. The compound further returned a CC50 at 72 h in data set [2] of 0.48 ± 0.1 µM. Further, the “Selectivity index HepG2/W2” value in data set [3] was 0.28. For the same compound, the “Selectivity index HepG2/Tryp.” value in data set [5] was 0.40.

The values above are taken from PMC6968685 (Journal of Enzyme Inhibition and Medicinal Chemistry, 2020).
